The text below walks through data of ChEMBL document CHEMBL1201862, “PubChem BioAssay data set” (2004).

As usually defined, the GI50 is the concentration giving 50% growth inhibition.

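1) Cells in 96-well plates. 2) Compound, 48 h, 5 concentrations. 3) Linear interpolation between surrounding doses. 4) Unreached endpoint = highest concentration. Abbreviation: GI50, concentration required for 50% inhibition of growth.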 The source made the active and inactive calls. No stated cut-off is given here; in the data, active = GI50 up to about 1.1 µM and inactive = higher.

Test systems include A549; BT-549; HCT-116; HL-60; HT-29; IGROV-1; MDA-N; NCI-H226; NCI-H23; NCI-H522; NCI/ADR-RES; OVCAR-5; OVCAR-8; RPMI-8226; SF-295; SF-539; SR; TK-10; UACC-257.
Test in all cases: DTP human tumour cell line panel, 48 h

On to `O=C1c2ccccc2C(=O)N1CC1(C(=O)O)NCCS1(=O)=O` (stereo not drawn), for which the GI50 with A549, in the assay on BT-549, with HCT-116, with HL-60, in the assay with HT-29 and in the assay with IGROV-1 was > 100 µM (inactive) each time. The GI50 in the assay on MDA-N, in the assay with NCI-H226, with NCI-H23, in the assay with NCI-H522, in the assay on NCI/ADR-RES and with OVCAR-5 was > 100 µM (inactive) in each case. In addition, the GI50 in the assay on OVCAR-8, in the assay with RPMI-8226, with SF-295, in the assay with SF-539, in the assay on SR and in the assay on TK-10 was > 100 µM (inactive) in each case. Moreover, the GI50 in the assay with UACC-257 is > 100 µM (inactive).

On to `C/C=C(\C)C(=O)OC1C(C)=C2C(C1OC(=O)CCCC)C(C)(OC(C)=O)CC(OC(=O)CCCC)C1(O)C2OC(=O)C1(C)O` (stereo not drawn), for which the 50% growth inhibitory concentration (GI50) is 1.03 µM (active) in the assay on A549; 8.71 µM (inactive) in the assay with BT-549; 0.525 µM (active) in the assay with HCT-116; 0.0324 µM (active) with HL-60; 0.736 µM (active) in the assay on HT-29; 6.85 µM (inactive) in the assay on IGROV-1. Further, the GI50 in the assay on MDA-N is 0.437 µM (active); in the assay on NCI-H226 it was 1.19 µM (inactive); in the assay on NCI-H23, 1.14 µM (inactive); in the assay with NCI-H522, 0.362 µM (active); with NCI/ADR-RES it was 36.9 µM (inactive); with OVCAR-5, 2.21 µM (inactive). Further, the GI50 in the assay with OVCAR-8 was 4.43 µM (inactive); with RPMI-8226 it was 0.267 µM (active); in the assay on SF-295 it was 0.802 µM (active); with SF-539 it was 0.944 µM (active); with SR, 0.951 µM (active); in the assay with TK-10 it was 13 µM (inactive). For the same compound, the GI50 with UACC-257 was 9.46 µM (inactive).

As for `Cc1ccc(-c2cc(-c3ccc(Cl)cc3)nc(/N=C3\C(=O)N(CN4CCOCC4)c4ccc(Cl)cc43)n2)cc1`, the GI50 in the assay with A549 is 27.2 µM (inactive); with BT-549, 21.8 µM (inactive); in the assay with HCT-116 it was 17.4 µM (inactive); in the assay on HL-60 it was 11.6 µM (inactive); in the assay on HT-29, 16.3 µM (inactive); in the assay on IGROV-1, 13 µM (inactive). Further, the GI50 in the assay on MDA-N was 32.6 µM (inactive); in the assay with NCI-H226 it was 54.1 µM (inactive); in the assay with NCI-H23, 19.6 µM (inactive); in the assay with NCI-H522, 15.4 µM (inactive); with NCI/ADR-RES, 22.6 µM (inactive); in the assay with OVCAR-5, 26.4 µM (inactive). The GI50 is 20.9 µM (inactive) in the assay on OVCAR-8; 0.0139 µM (active) in the assay on RPMI-8226; 35.7 µM (inactive) in the assay with SF-295; 23 µM (inactive) in the assay with SF-539; 9.38 µM (inactive) in the assay with SR; 26.4 µM (inactive) with TK-10. The GI50 in the assay with UACC-257 is 33.3 µM (inactive).

As to `CC(C)=CCC[C@@H](C)C1=C(Nc2ccccc2F)C(=O)C(C)=C(O)C1=O`, the GI50 is 4.09 µM (inactive) in the assay on A549; 8.09 µM (inactive) with BT-549; 4.58 µM (inactive) with HCT-116; 1 µM (active) with HL-60; 4.74 µM (inactive) with HT-29; 4.54 µM (inactive) in the assay with IGROV-1. Besides, the GI50 is 10.6 µM (inactive) in the assay with MDA-N; 5.3 µM (inactive) with NCI-H226; 3.66 µM (inactive) with NCI-H23; 4.18 µM (inactive) in the assay on NCI-H522; 2.55 µM (inactive) in the assay on NCI/ADR-RES; 36.8 µM (inactive) with OVCAR-5. Moreover, the GI50 with OVCAR-8 is 3.49 µM (inactive); in the assay on RPMI-8226, 17.4 µM (inactive); in the assay with SF-295, 3.65 µM (inactive); in the assay with SF-539, 10.1 µM (inactive); in the assay with SR, 11 µM (inactive); with TK-10, 5.82 µM (inactive). Moreover, the GI50 in the assay on UACC-257 was 10.1 µM (inactive).

On to `CCN1CCC(O)(/C=C/c2ccc(C)cc2C)C(C(=O)/C=C/c2ccc(C)cc2C)C1` (stereo not drawn), for which the GI50 in the assay with A549 was 4 µM (inactive); in the assay with BT-549 it was 2.79 µM (inactive); in the assay with HCT-116 it was 2.22 µM (inactive); in the assay on HL-60, 3.35 µM (inactive); with HT-29, 2.16 µM (inactive); with IGROV-1 it was 2.89 µM (inactive). Moreover, the GI50 is 2.2 µM (inactive) with MDA-N; 2.77 µM (inactive) with NCI-H226; 2.77 µM (inactive) with NCI-H23; 1.84 µM (inactive) with NCI-H522; 2.46 µM (inactive) in the assay on NCI/ADR-RES; 4.29 µM (inactive) in the assay with OVCAR-5. In addition, the GI50 is 2.09 µM (inactive) with OVCAR-8; 4.76 µM (inactive) in the assay on RPMI-8226; 2.08 µM (inactive) in the assay with SF-295; 1.92 µM (inactive) with SF-539; 2.37 µM (inactive) in the assay on SR; 1.64 µM (inactive) in the assay with TK-10. Moreover, the GI50 with UACC-257 is 4.99 µM (inactive).

Regarding `O=c1[nH]nc(-c2ccc([N+](=O)[O-])cc2)n1/N=C/c1ccc([N+](=O)[O-])cc1`, the GI50 is 90.8 µM (inactive) in the assay on A549; > 100 µM (inactive) in the assay with BT-549; > 100 µM (inactive) in the assay with HCT-116; 30.4 µM (inactive) in the assay with HL-60; 74 µM (inactive) in the assay on HT-29; > 100 µM (inactive) in the assay on IGROV-1. Also, the GI50 is > 100 µM (inactive) in the assay on MDA-N; > 100 µM (inactive) in the assay on NCI-H226; 60.7 µM (inactive) in the assay on NCI-H23; 73.3 µM (inactive) in the assay with NCI-H522; 64.7 µM (inactive) in the assay on NCI/ADR-RES; > 100 µM (inactive) in the assay with OVCAR-5. The GI50 with OVCAR-8 is > 100 µM (inactive); in the assay with RPMI-8226, 38.5 µM (inactive); in the assay on SF-295, > 100 µM (inactive); in the assay with SF-539 it was > 100 µM (inactive); with SR, 52 µM (inactive); in the assay on TK-10, > 100 µM (inactive). In addition, the GI50 in the assay on UACC-257 was > 100 µM (inactive).

Consider `CCC1CCC2C3CC=C4CC(OC(C)=O)C(N)CC4(C)C3CCC12C` (stereo not drawn), for which the GI50 was 2.07 µM (inactive) in the assay with A549; 4.93 µM (inactive) with BT-549; 2.46 µM (inactive) in the assay on HCT-116; 2 µM (inactive) in the assay on HL-60; 2.36 µM (inactive) with HT-29; 6.4 µM (inactive) in the assay with IGROV-1. Besides, the GI50 in the assay with MDA-N is 2.7 µM (inactive); in the assay with NCI-H226 it was 20.2 µM (inactive); in the assay on NCI-H23 it was 6 µM (inactive); with NCI-H522 it was 2.51 µM (inactive); with NCI/ADR-RES it was 5.21 µM (inactive); with OVCAR-5, 6.21 µM (inactive). Besides, the GI50 in the assay on OVCAR-8 was 2.05 µM (inactive); with RPMI-8226, 2.69 µM (inactive); in the assay with SF-295 it was 3.26 µM (inactive); with SF-539, 1.86 µM (inactive); in the assay on SR, 2.25 µM (inactive); in the assay with TK-10 it was 2.66 µM (inactive). In addition, the GI50 with UACC-257 is 2.17 µM (inactive).
